Columns and labels:
[1] = tested on: Nucleic Acid; assay: Concentration required for 50% decrease in fluorescence of ethidium bromide bound to calf thymus DNA. at 600 nm; format: nucleic-acid assay; details: Bos taurus
[2] = Enhancement ratio was calculated to determine the radiosensitization as the ratio of radiation dose required to kill similar cells in anoxia to those with the compound; at a concentration of 0.5 mM; format: functional, Cricetulus griseus
[3] = Concentration required to kill 50 % of the cells after ca. 7 days aerobic exposure.; format: functional, Cricetulus griseus
[4] = Enhancement ratio was calculated to determine the radiosensitization as the ratio of radiation dose required to kill similar cells in anoxia to those with the compound; at a concentration of 0.05 mM; format: functional, Cricetulus griseus
[5] = Concentration required to kill 50 % of the cells after ca. 7 days aerobic exposure; value ranges from 0.025-0.05; format: functional, Cricetulus griseus
[6] = Enhancement ratio was calculated to determine the radiosensitization as the ratio of radiation dose required to kill similar cells in anoxia to those with the compound; at a concentration of 1.0 mM; format: functional, Cricetulus griseus
[7] = Cellular uptake was calculated as the ratio of intracellular and extracellular concentration in V79 hamster cells.; format: functional, Cricetulus griseus
[8] = Enhancement ratio was calculated to determine the radiosensitization as the ratio of radiation dose required to kill similar cells in anoxia to those with the compound; at a concentration of ~5 mM; format: functional, Cricetulus griseus
[9] = Concentration required to kill 50 % of the cells after ca. 7 days exposure.; format: functional, Cricetulus griseus

| Compound | C50 [1] | Ratio [2] | C50 [3] | Ratio (Ci/Ce) [7] | also measured |
| --- | --- | --- | --- | --- | --- |
| Cn1cc(NC(=O)c2cc(NC(=O)CNC(=N)N)cn2C)cc1C(=O)NCCC(=N)N | 1.1 µM | – | – | – | – |
| Cl.Cn1cc(NC(=O)Cn2ccnc2[N+](=O)[O-])cc1C(=O)NCCC(=N)N | 6.8 µM | 1.04 | >0.25 mM | – | – |
| Cl.Cn1cc(NC(=O)c2ccc([N+](=O)[O-])o2)cc1C(=O)NCCC(=N)N | 26 µM | – | – | – | Ratio [4]: 1.3; C50 [5]: 0.025 mM |
| NC(=O)N/N=C/c1ccc([N+](=O)[O-])o1 [NITROFURAZONE] | > 1000 µM | – | 0.13 mM | – | Ratio [4]: 1.6 |
| O=C(Cn1ccnc1[N+](=O)[O-])NCCO [ETANIDAZOLE] | 3000 µM | – | – | 0.4 | Ratio [6]: 1.55 |
| COCC(O)Cn1ccnc1[N+](=O)[O-] (stereo not drawn) [MISONIDAZOLE] | 2700 µM | – | 1.3 mM | 0.7 | – |
| Cc1ncc([N+](=O)[O-])n1CCO [METRONIDAZOLE] | 3200 µM | – | 6.5 mM | – | Ratio [8]: 1.6 |
| Cl.Cn1cc(NC(=O)c2cc(NC(=O)Cn3ccnc3[N+](=O)[O-])cn2C)cc1C(=O)NCCC(=N)N | 16 µM | 1.04 | >0.25 mM | 3.6 | – |
| Cn1cc(NC(=O)c2cc(NC(=O)c3cc(NC=O)cn3C)cn2C)cc1C(=O)NCCC(=N)N | 1.3 µM | – | – | – | – |
| Cl.Cn1cc(NC(=O)c2cc(NC(=O)c3ccc([N+](=O)[O-])o3)cn2C)cc1C(=O)NCCC(=N)N | 4.8 µM | 1.16 | – | 9.4 | C50 [9]: <0.01 mM |
